Source: doi:10.1101/2024.05.19.594723v1 (biorxiv, 2024)
Where a name gives a salt, the structure may show the parent alone. Read-outs that look alike come from different tables or passages of the source.

Tests used:
in vitro [1] = conditions: hamster, bhk-21 cells
Chikungunya virus CHIKV = assay: microbe, parasite or virus in culture; conditions: read-out: Plaque reduction assay IC50 (nM)
CHIKV nsP1 [2] = target: T1, CHIKV nsP1 (Chikungunya virus strain S27-African prototype, UniProt Q8JUX6); type: binding
T1 sequence (Q8JUX6 1-535): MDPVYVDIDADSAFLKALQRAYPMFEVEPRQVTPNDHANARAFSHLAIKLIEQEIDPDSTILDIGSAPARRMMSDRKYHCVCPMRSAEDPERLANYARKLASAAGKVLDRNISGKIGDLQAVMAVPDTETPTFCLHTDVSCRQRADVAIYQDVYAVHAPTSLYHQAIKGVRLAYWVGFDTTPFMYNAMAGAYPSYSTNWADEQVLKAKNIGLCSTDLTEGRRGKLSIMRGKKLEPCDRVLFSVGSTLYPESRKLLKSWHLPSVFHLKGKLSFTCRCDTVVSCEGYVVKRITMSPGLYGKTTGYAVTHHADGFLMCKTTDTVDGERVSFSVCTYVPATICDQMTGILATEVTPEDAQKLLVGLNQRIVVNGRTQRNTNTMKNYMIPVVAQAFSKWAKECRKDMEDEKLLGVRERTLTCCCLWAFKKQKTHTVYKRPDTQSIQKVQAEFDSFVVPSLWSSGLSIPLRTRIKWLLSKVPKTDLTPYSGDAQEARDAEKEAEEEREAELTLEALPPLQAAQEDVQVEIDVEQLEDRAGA

Sindbis virus SINV = assay: microbe, parasite or virus in culture; conditions: BHK-21, read-out: SINV replicon assay IC50 (μM)
in vitro [3] = conditions: monkey, vero cells
CHIKV nsP1 [4] = target: T1, CHIKV nsP1; assay: biochemical

| Compound | CC50 at 24 h (in vitro [1]) | IC50 (Chikungunya virus CHIKV) | Kd (CHIKV nsP1 [2]) | IC50 (Sindbis virus SINV) | CC50 at 24 h (in vitro [3]) | Kd (CHIKV nsP1 [4]) |
| --- | --- | --- | --- | --- | --- | --- |
| CC1(C)CCC(CN2CCN(c3ccc(C(=O)NS(=O)(=O)c4ccc(NCC5CCOCC5)c([N+](=O)[O-])c4)c(Oc4cnc5[nH]ccc5c4)c3)CC2)=C(c2ccc(Cl)cc2)C1 [ABT199/Venetoclax] | > 2.5 µM | 3.46 ± 1.31 nM | ~161 µM | 0.23 ± 0.04 µM | 5 µM | – |
| Cc1ccc(C(=O)Nc2ccc(CN3CCN(C)CC3)c(C(F)(F)F)c2)cc1C#Cc1cnc2cccnn12 [Ponatinib] | 2.4 µM | < 3.9 nM | ~3.83 µM | > 1.25 µM | 7.95 µM | – |
| COc1cc2c3cc1Oc1c(OC)c(OC)cc4c1[C@@H](Cc1cccc(c1)Oc1ccc(c(O)c1)C[C@@H]3N(C)CC2)N(C)CC4 [Berbamine Hydrochloride] | 46 µM | < 100 nM | – | 1.94 ± 0.97 µM | > 25 µM | 5.45 ± 0.77 µM |
